Results from publication PMC7179198, “Chiral Pyridine-3,5-bis- (L-phenylalaninyl-L-leucinyl) Schiff Base Peptides as Potential Anticancer Agents: Design, Synthesis, and Molecular Docking Studies Targeting Lactate Dehydrogenase-A” (Molecules, 2020).

Legend:
MCF-7 xenografts = assay: In vivo human breast cancer xenograft; parameters: species or system nude mice; conditions: MCF-7 xenograft, eight days of treatment
From the text: In this section, we developed a breast cancer animal xenograft model for the evaluation of thein vivo anticancer potential of our newly prepared compounds. […] After wards, the noticeable effects were more or less constant up to 14 days of treatment. […] Our results are in good agreement with those previously published on the in vivo anticancer potential of Schiff bases owing to apoptosis induction.
The breast cancer xenograft model protocol was approved by the Institutional Animal Use and Care Committee of the University of Alabama at Birmingham (50-01-05-08B). Female athymic pathogen-free nude mice (nu/nu, 4–6 weeks) were used. Firstly, MCF-7 xenografts were initiated by implanting pellets slowly releasing estrogen for two months (1.7mg 17β-estradiol/pellet) subcutaneously in the female nude mice. After 24 h, confluent MCF-7 cells were harvested, washed two times with serum-free medium, re-suspended, and injected subcutaneously (s.c.) (5 × 10^6 cells, total volume 0.2 mL) into the left inguinal area of the mice. Caliper measurement was used to measure tumor growth in two perpendicular diameters of the implant after 48 h, and its volume was determined. Mice grafted with MCF-7 were divided into different groups (7–10 mice/group). Untreated mice received the solvent only. Treated groups received different prepared derivatives as previously described.

[1] = molecular target: T1, recombinant human LDHA protein (Homo sapiens, UniProt P00338); assay: LDHA inhibition assay (colorimetric NADH kit); assay type: biochemical
T1 construct: purchased Abcam ab93699
Description: The newly synthesized compounds 4–6 were evaluated for their ability to inhibit LDHA in comparison with galloflavin as a known isoform nonselective LDHA inhibitor [44, 45]. The choice of galloflavin as a reference was based on the fact that it is potent anticancer agent and commercially available.
Lactate dehydrogenase assay kit (Abcam, ab102526) and recombinant human LDHA protein (Abcam, ab93699) were used to assess the inhibitory effect of the tested compounds. First, we generated an NADH standard curve for colorimetric detection by measuring the OD (450 nm) at different molar amounts of NADH. The linear regression equation of the curve was derivatized in Graphpad Prism. Tested compounds were dissolved in DMSO and their inhibitory activity was assessed at 140 and 300 μM strength. Galloflavin (Sigma, SML0776) at the same molar concentration was used as a known LDH inhibitor. The master reaction mix composed of LDH assay buffer and 10 ng human LDHA […] per reaction was prepared. Tested compounds were added and the final reaction volume was adjusted to 50 μL. Absorbance at 450 nm was taken after 2–3 min (T-initial) and continued every minute for 118 min (T-final). The change in measurement over time (delta A450) was calculated as T-final minus T-initial. The amount of NADH generated by the assay between T-initial and T-final was deduced by comparing the A450 of each sample to the standard NADH standard curve. LDHA activity was calculated in milliunits per mL as the amount of NADH generated by the assay / (reaction time in minutes (118) x reaction volume in mL ([…]).

Which “decrease in tumor growth” value (MCF-7 xenografts) does the source give for `CC(=NNC(=O)C(CC(C)C)NC(=O)C(Cc1ccccc1)NC(=O)c1cncc(C(=O)NC(Cc2ccccc2)C(=O)NC(CC(C)C)C(=O)NN=C(C)c2ccc([N+](=O)[O-])cc2)c1)c1ccc([N+](=O)[O-])cc1` (stereo not drawn) [5e, N^3,N^5-Bis{1-[(4-methyl-1-(2-(1-(4-nitrophenyl)ethylidene)hydrazinyl)-1-oxopentan-2-yl)-amino]-1-oxo-3-phenylpropan-2-yl}pyridine-3,5-dicarboxamide] here?
The value was 74.2%.

What about the IC50 ([1]; recombinant human LDHA) of the same compound?
Its IC50 is 141.6 ± 0.98 µM.

What about the “fold increase in LDHA inhibitory activity compared with galloflavin” value ([1]; vs galloflavin) of the same compound?
Its value is about 1.14 fold.
